Legend:
Experiment in all cases: preservation efficacy test (PET), European Pharmacopoeia 5.1.3
Format in all cases: cell-based
Staphylococcus aureus = conditions: for SA germ count, 2 days / count at 2 days: 2 days after inoculation; for SA germ count, 2 days / SA germ count, 7 days / SA germ count, 14 days / SA germ count, 28 days: substance at given % in test formulation; for SA germ count, 7 days / count at 7 days: 7 days after inoculation; for SA germ count, 14 days / count at 14 days: 14 days after inoculation; for SA germ count, 28 days / count at 28 days: 28 days after inoculation; for count at 2 days / count at 7 days / count at 14 days / count at 28 days: SA, use concentration in label
Escherichia coli = conditions: for EC germ count, 2 days / count at 2 days: 2 days after inoculation; for EC germ count, 2 days / EC germ count, 7 days / EC germ count, 14 days / EC germ count, 28 days: substance at given % in test formulation; for EC germ count, 7 days / count at 7 days: 7 days after inoculation; for EC germ count, 14 days / count at 14 days: 14 days after inoculation; for EC germ count, 28 days / count at 28 days: 28 days after inoculation; for count at 2 days / count at 7 days / count at 14 days / count at 28 days: EC, use concentration in label
Pseudomonas aeruginosa = conditions: for PA germ count, 2 days / count at 2 days: 2 days after inoculation; for PA germ count, 2 days / PA germ count, 7 days / PA germ count, 14 days / PA germ count, 28 days: substance at given % in test formulation; for PA germ count, 7 days / count at 7 days: 7 days after inoculation; for PA germ count, 14 days / count at 14 days: 14 days after inoculation; for PA germ count, 28 days / count at 28 days: 28 days after inoculation; for count at 2 days / count at 7 days / count at 14 days / count at 28 days: PA, use concentration in label
Candida albicans = conditions: for CA germ count, 7 days / count at 7 days: 7 days after inoculation; for CA germ count, 7 days / CA germ count, 14 days / CA germ count, 28 days / CA germ count, 2 days: substance at given % in test formulation; for CA germ count, 14 days / count at 14 days: 14 days after inoculation; for CA germ count, 28 days / count at 28 days: 28 days after inoculation; for count at 2 days / count at 7 days / count at 14 days / count at 28 days: CA, use concentration in label; for count at 2 days / CA germ count, 2 days: 2 days after inoculation
Aspergillus brasiliensis = conditions: for AB germ count, 14 days / count at 14 days: 14 days after inoculation; for AB germ count, 14 days / AB germ count, 28 days / AB germ count, 7 days: substance at given % in test formulation; for AB germ count, 28 days / count at 28 days: 28 days after inoculation; for count at 2 days / count at 7 days / count at 14 days / count at 28 days: AB, use concentration in label; for count at 2 days: 2 days after inoculation; for count at 7 days / AB germ count, 7 days: 7 days after inoculation

Structure (SMILES) | SA germ count, 7 days (Staphylococcus aureus) | SA germ count, 14 days (Staphylococcus aureus) | SA germ count, 28 days (Staphylococcus aureus) | EC germ count, 7 days (Escherichia coli) | EC germ count, 14 days (Escherichia coli) | EC germ count, 28 days (Escherichia coli) | PA germ count, 2 days (Pseudomonas aeruginosa) | count at 7 days (Staphylococcus aureus) | count at 2 days (Escherichia coli) | count at 7 days (Escherichia coli) | count at 14 days (Escherichia coli) | count at 2 days (Pseudomonas aeruginosa) | count at 7 days (Pseudomonas aeruginosa) | count at 14 days (Pseudomonas aeruginosa) | count at 28 days (Pseudomonas aeruginosa) | count at 14 days (Candida albicans) | count at 28 days (Candida albicans) | count at 7 days (Aspergillus brasiliensis) | count at 14 days (Aspergillus brasiliensis) | count at 28 days (Aspergillus brasiliensis) | also measured
O=C(OCc1ccccc1)c1ccccc1O [0.2% Benzyl Salicylate] | 9.200 | 1 | 1 | 13.000 | 640 | 430 | 1.200 | – | – | – | – | – | – | – | – | – | – | – | – | – | SA germ count, 2 days (Staphylococcus aureus): 670.000; EC germ count, 2 days (Escherichia coli): 250.000; PA germ count, 7 days (Pseudomonas aeruginosa): 790; PA germ count, 14 days (Pseudomonas aeruginosa): 160.000; PA germ count, 28 days (Pseudomonas aeruginosa): 44.000; CA germ count, 7 days (Candida albicans): 600.000; CA germ count, 14 days (Candida albicans): 370.000; CA germ count, 28 days (Candida albicans): 390.000; AB germ count, 14 days (Aspergillus brasiliensis): 750.000; AB germ count, 28 days (Aspergillus brasiliensis): 630.000
O=P(O)(O)O[C@H]1[C@H](OP(=O)(O)O)[C@@H](OP(=O)(O)O)[C@H](OP(=O)(O)O)[C@@H](OP(=O)(O)O)[C@H]1OP(=O)(O)O [0.4% phytic acid] | – | – | – | – | – | – | – | 1 | 1 | 1 | 1 | 1 | 1 | 1 | 1 | 570.000 | 520.000 | 290.000 | 180.000 | 150.000 | count at 2 days (Staphylococcus aureus): 1; count at 14 days (Staphylococcus aureus): 1; count at 28 days (Staphylococcus aureus): 1; count at 28 days (Escherichia coli): 1; count at 2 days (Candida albicans): 640.000; count at 7 days (Candida albicans): 550.000; count at 2 days (Aspergillus brasiliensis): 510.000
CC(C)=CCC[C@](C)(O)[C@@H]1CC=C(C)CC1 [0.3% Dragosantol 100] | 290 | 1 | 1 | 200 | 1 | 1 | 1 | – | – | – | – | – | – | – | – | – | – | – | – | – | SA germ count, 2 days (Staphylococcus aureus): 370.000; EC germ count, 2 days (Escherichia coli): 120.000; PA germ count, 7 days (Pseudomonas aeruginosa): 1; PA germ count, 14 days (Pseudomonas aeruginosa): 1; PA germ count, 28 days (Pseudomonas aeruginosa): 1; CA germ count, 2 days (Candida albicans): 800.000; CA germ count, 7 days (Candida albicans): 920.000; CA germ count, 14 days (Candida albicans): 28.000; CA germ count, 28 days (Candida albicans): 58.000; AB germ count, 7 days (Aspergillus brasiliensis): 880.000; AB germ count, 14 days (Aspergillus brasiliensis): 620.000; AB germ count, 28 days (Aspergillus brasiliensis): 660.000
CCOC(=O)c1ccc(O)cc1 [0.1% Ethylparaben] | 38.000 | 1 | 1 | 62.000 | 280 | 390 | 1 | – | – | – | – | – | – | – | – | – | – | – | – | – | EC germ count, 2 days (Escherichia coli): 440.000; PA germ count, 7 days (Pseudomonas aeruginosa): 1; PA germ count, 14 days (Pseudomonas aeruginosa): 1; PA germ count, 28 days (Pseudomonas aeruginosa): 1; CA germ count, 2 days (Candida albicans): 380.000; CA germ count, 7 days (Candida albicans): 200.000; CA germ count, 14 days (Candida albicans): 170.000; CA germ count, 28 days (Candida albicans): 260.000; AB germ count, 7 days (Aspergillus brasiliensis): 630.000; AB germ count, 14 days (Aspergillus brasiliensis): 800.000; AB germ count, 28 days (Aspergillus brasiliensis): 730.000
CCCCC(O)C(C)O (stereo not shown) [0.4% 2,3-heptanediol] | – | – | – | – | – | – | – | 12.000 | 320.000 | 2.400 | 1 | 1 | 1 | 1 | 1 | 130.000 | 11.000 | 930.000 | 500.000 | 390.000 | count at 14 days (Staphylococcus aureus): 1; count at 28 days (Staphylococcus aureus): 1; count at 28 days (Escherichia coli): 1; count at 2 days (Candida albicans): 640.000; count at 7 days (Candida albicans): 350.000; count at 2 days (Aspergillus brasiliensis): 790.000
CC(=O)CCC(=O)O [0.4% Levulinic Acid] | – | – | – | – | – | – | – | 1 | 310 | 1 | 1 | 1 | 1 | 1 | 1 | 240.000 | 38.000 | 440.000 | 390.000 | 120.000 | count at 2 days (Staphylococcus aureus): 45.000; count at 14 days (Staphylococcus aureus): 1; count at 28 days (Staphylococcus aureus): 1; count at 28 days (Escherichia coli): 1; count at 2 days (Candida albicans): 240.000; count at 7 days (Candida albicans): 220.000; count at 2 days (Aspergillus brasiliensis): 710.000
CC(=O)c1ccc(O)cc1 [0.1% 4-Hydroxyacetophenone (SymSave H)] | 1 | 1 | 1 | 87.000 | 2.400 | 1 | 1 | – | – | – | – | – | – | – | – | – | – | – | – | – | SA germ count, 2 days (Staphylococcus aureus): 210.000; PA germ count, 7 days (Pseudomonas aeruginosa): 1; PA germ count, 14 days (Pseudomonas aeruginosa): 1; PA germ count, 28 days (Pseudomonas aeruginosa): 1; CA germ count, 7 days (Candida albicans): 81.000; CA germ count, 14 days (Candida albicans): 120; CA germ count, 28 days (Candida albicans): 1; AB germ count, 7 days (Aspergillus brasiliensis): 680.000; AB germ count, 14 days (Aspergillus brasiliensis): 58.000; AB germ count, 28 days (Aspergillus brasiliensis): 18.000
O=C([O-])CC[C@@H](C(=O)[O-])N(CC(=O)[O-])CC(=O)[O-].[Na+].[Na+].[Na+].[Na+] | – | – | – | – | – | – | – | 810.000 | 50.000 | 23.000 | 450.000 | 43.000 | 95.000 | 510.000 | 350.000 | 200.000 | 390.000 | 440.000 | 720.000 | 660.000 | –
CC(O)C(=O)[O-].[Na+] (stereo not shown) [0.8% sodium lactate (50%)] | – | – | – | – | – | – | – | 150.000 | 440.000 | 210.000 | 210.000 | 1 | 1 | 1 | 1 | 890.000 | 260.000 | 730.000 | 440.000 | 190.000 | count at 2 days (Staphylococcus aureus): 190.000; count at 14 days (Staphylococcus aureus): 170.000; count at 28 days (Staphylococcus aureus): 18.000; count at 28 days (Escherichia coli): 850; count at 2 days (Candida albicans): 930.000; count at 7 days (Candida albicans): 800.000; count at 2 days (Aspergillus brasiliensis): 910.000

From patent US20230293407A1, “Compositions Comprising (Bio)-Alkanediols with Antimicrobials for Product Protection” (Symrise AG, priority 2020, published 2023)
